Test results from PMC6437697 (Journal of Medicinal Chemistry, 2019).

Key:
Experiment in all cases: KINOMEscan
Format in all cases: binding
Conditions in all cases: read-out: % control activity remaining
ERK4 = target: T1, ERK4 (Homo sapiens, UniProt P31152)
T1 construct: purchased Eurofins DiscoverX KINOMEscan

CDKL1 = target: T2, CDKL1 (Homo sapiens, UniProt Q00532)
T2 construct: purchased Eurofins DiscoverX KINOMEscan

LRRK2(G2019S) = target: T3, LRRK2(G2019S) (Homo sapiens, UniProt Q5S007, G2019S)
T3 construct: purchased Eurofins DiscoverX KINOMEscan

OSR1 = target: T4, OSR1 (Homo sapiens, UniProt O95747)
T4 construct: purchased Eurofins DiscoverX KINOMEscan

NEK6 = target: T5, NEK6 (Homo sapiens, UniProt Q9HC98)
T5 construct: purchased Eurofins DiscoverX KINOMEscan

MELK = target: T6, MELK (Homo sapiens, UniProt Q14680)
T6 construct: purchased Eurofins DiscoverX KINOMEscan

MAP3K3 = target: T7, MAP3K3 (Homo sapiens, UniProt Q99759)
T7 construct: purchased Eurofins DiscoverX KINOMEscan
T7 sequence (Q99759 1-626): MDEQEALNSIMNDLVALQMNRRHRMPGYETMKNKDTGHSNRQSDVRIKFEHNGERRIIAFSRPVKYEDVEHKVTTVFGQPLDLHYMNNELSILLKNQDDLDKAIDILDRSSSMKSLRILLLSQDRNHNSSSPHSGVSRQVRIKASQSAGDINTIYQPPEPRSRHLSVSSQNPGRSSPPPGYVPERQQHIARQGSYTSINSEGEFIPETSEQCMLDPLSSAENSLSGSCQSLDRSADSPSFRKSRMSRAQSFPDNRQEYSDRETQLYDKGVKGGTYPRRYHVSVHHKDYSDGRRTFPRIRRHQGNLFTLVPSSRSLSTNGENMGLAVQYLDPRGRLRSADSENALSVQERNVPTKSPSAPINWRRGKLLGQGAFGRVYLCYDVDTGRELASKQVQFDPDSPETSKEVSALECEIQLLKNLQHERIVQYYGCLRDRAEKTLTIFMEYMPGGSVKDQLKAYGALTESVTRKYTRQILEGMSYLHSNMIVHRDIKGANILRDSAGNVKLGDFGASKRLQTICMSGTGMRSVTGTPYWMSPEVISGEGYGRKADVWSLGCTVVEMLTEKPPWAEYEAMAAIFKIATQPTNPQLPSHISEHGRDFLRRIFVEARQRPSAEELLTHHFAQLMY

PIP5K2C = target: T8, PIP5K2C (Homo sapiens, UniProt Q8TBX8)
T8 construct: purchased Eurofins DiscoverX KINOMEscan
T8 sequence (Q8TBX8 1-421): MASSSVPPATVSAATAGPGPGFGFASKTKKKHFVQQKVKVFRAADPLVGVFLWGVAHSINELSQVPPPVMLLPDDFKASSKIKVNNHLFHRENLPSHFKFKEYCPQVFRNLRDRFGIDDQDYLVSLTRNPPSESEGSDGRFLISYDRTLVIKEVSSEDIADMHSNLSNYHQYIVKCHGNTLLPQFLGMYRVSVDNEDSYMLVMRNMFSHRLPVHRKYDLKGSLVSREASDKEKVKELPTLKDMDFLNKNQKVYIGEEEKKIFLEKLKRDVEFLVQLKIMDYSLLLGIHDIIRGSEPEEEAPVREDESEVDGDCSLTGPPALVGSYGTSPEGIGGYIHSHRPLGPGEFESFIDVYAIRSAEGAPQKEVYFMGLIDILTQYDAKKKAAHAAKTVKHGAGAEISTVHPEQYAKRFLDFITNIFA

NDR2 = target: T9, NDR2 (Homo sapiens, UniProt Q9Y2H1)
T9 construct: purchased Eurofins DiscoverX KINOMEscan

SIK2 = target: T10, SIK2 (Homo sapiens, UniProt Q9H0K1)
T10 construct: purchased Eurofins DiscoverX KINOMEscan

p38-beta = target: T11, p38-beta (Homo sapiens, UniProt Q15759)
T11 construct: purchased Eurofins DiscoverX KINOMEscan

[1] = target: T12, ABL1(E255K)-phosphorylated (Homo sapiens, UniProt P00519, E255K)
T12 construct: purchased Eurofins DiscoverX KINOMEscan

p38-alpha = target: T13, p38-alpha (Homo sapiens, UniProt Q16539)
T13 construct: purchased Eurofins DiscoverX KINOMEscan

T1 sequence (P31152 whole entry): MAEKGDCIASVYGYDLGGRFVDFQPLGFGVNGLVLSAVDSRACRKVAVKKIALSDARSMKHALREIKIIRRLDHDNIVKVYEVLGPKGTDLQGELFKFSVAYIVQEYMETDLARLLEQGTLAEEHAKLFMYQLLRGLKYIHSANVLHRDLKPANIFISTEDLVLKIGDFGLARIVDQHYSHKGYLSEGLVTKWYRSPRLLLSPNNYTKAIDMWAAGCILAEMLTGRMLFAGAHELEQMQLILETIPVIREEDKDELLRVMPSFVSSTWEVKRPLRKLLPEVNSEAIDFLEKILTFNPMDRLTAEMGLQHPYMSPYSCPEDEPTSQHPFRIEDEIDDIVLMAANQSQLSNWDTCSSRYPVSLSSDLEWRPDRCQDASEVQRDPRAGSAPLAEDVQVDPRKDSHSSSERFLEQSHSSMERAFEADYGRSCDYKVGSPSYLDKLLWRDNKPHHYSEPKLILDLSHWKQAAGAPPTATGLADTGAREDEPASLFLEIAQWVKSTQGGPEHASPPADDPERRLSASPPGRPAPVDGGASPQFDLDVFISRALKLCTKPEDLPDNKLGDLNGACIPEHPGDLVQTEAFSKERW
T10 sequence (Q9H0K1 whole entry): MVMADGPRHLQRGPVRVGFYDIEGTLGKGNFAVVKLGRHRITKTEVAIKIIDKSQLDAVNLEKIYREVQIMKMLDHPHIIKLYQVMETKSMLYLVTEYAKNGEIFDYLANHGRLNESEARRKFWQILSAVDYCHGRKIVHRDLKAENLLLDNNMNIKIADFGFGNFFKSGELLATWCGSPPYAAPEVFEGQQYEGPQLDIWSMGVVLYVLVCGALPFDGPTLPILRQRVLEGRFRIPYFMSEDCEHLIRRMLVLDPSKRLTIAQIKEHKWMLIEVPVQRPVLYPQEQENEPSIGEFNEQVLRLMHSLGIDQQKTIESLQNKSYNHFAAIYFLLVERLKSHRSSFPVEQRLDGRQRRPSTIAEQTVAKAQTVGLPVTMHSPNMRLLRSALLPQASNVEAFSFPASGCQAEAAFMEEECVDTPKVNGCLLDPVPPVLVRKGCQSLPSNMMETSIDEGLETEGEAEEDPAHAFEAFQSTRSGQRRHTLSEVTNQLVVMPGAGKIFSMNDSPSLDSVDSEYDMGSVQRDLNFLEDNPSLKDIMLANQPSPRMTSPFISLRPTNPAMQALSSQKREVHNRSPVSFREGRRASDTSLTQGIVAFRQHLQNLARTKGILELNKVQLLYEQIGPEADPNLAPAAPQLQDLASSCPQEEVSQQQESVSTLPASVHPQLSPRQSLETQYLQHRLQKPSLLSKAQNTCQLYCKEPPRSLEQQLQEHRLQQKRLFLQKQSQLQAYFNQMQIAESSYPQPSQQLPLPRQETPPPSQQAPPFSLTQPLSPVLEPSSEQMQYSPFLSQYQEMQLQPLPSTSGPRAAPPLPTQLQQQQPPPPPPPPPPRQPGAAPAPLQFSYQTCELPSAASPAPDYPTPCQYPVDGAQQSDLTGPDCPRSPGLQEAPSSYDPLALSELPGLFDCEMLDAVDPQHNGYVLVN
T9 sequence (Q9Y2H1 whole entry): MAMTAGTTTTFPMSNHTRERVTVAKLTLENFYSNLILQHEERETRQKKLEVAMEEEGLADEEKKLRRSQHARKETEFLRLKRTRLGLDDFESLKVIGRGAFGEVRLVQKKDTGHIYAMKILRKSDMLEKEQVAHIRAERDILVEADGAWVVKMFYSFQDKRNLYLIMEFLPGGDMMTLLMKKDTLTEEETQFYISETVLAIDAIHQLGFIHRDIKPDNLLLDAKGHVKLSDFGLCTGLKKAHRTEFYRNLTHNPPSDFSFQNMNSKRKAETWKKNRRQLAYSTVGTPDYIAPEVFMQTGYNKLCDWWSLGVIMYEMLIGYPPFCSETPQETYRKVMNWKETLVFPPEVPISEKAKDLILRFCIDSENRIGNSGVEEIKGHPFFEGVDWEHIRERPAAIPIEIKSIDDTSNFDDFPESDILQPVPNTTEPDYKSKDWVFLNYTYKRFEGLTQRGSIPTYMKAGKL
T4 sequence (O95747 whole entry): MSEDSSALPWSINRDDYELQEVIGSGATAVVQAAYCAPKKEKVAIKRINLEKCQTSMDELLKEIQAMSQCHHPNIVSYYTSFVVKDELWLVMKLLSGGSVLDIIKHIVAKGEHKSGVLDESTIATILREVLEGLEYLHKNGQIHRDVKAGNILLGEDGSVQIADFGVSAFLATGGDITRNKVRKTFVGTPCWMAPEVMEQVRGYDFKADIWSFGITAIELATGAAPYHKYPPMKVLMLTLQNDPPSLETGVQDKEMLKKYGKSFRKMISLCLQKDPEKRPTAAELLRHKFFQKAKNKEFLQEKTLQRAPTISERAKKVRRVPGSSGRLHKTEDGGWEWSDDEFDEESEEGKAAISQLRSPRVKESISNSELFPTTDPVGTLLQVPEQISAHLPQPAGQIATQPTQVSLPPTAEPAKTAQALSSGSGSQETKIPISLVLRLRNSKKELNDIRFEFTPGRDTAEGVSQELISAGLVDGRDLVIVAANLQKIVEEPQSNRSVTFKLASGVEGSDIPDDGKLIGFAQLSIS
T2 sequence (Q00532 whole entry): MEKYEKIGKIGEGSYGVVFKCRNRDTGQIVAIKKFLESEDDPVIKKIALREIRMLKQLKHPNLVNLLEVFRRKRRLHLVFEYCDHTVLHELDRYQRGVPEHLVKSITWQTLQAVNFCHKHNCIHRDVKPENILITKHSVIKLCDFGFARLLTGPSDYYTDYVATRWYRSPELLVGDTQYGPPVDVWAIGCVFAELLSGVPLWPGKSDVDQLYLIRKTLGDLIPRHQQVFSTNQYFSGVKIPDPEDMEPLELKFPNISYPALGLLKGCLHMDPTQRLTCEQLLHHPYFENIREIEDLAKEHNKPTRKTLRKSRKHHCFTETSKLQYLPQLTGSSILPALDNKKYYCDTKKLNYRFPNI
T11 sequence (Q15759 whole entry): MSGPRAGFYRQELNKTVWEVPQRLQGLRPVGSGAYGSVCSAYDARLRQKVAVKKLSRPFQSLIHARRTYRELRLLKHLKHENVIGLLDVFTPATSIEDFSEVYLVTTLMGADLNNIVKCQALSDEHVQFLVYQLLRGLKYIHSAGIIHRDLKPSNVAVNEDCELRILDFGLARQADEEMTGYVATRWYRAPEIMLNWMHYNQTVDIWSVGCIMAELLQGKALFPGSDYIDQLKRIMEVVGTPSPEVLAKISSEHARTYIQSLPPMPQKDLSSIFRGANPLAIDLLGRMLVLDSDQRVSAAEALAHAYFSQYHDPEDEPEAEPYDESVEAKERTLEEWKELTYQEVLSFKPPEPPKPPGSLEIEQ
T6 sequence (Q14680 whole entry): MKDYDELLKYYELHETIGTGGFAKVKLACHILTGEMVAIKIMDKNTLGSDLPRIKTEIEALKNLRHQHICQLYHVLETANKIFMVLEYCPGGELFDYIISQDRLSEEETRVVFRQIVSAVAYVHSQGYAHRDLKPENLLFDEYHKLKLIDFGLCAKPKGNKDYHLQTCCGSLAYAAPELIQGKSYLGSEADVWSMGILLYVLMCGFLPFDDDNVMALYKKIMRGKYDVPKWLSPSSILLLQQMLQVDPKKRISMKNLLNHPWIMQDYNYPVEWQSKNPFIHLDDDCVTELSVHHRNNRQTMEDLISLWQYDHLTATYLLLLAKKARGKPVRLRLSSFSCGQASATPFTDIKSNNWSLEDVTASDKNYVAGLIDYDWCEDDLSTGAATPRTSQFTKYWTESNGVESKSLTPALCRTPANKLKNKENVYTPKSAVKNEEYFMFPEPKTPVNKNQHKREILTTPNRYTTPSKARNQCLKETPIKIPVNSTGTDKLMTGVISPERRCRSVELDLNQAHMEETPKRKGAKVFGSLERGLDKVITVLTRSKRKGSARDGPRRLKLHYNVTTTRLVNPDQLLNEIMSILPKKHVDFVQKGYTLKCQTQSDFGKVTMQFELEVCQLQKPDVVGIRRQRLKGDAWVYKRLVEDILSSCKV
T12 sequence (P00519 whole entry E255K): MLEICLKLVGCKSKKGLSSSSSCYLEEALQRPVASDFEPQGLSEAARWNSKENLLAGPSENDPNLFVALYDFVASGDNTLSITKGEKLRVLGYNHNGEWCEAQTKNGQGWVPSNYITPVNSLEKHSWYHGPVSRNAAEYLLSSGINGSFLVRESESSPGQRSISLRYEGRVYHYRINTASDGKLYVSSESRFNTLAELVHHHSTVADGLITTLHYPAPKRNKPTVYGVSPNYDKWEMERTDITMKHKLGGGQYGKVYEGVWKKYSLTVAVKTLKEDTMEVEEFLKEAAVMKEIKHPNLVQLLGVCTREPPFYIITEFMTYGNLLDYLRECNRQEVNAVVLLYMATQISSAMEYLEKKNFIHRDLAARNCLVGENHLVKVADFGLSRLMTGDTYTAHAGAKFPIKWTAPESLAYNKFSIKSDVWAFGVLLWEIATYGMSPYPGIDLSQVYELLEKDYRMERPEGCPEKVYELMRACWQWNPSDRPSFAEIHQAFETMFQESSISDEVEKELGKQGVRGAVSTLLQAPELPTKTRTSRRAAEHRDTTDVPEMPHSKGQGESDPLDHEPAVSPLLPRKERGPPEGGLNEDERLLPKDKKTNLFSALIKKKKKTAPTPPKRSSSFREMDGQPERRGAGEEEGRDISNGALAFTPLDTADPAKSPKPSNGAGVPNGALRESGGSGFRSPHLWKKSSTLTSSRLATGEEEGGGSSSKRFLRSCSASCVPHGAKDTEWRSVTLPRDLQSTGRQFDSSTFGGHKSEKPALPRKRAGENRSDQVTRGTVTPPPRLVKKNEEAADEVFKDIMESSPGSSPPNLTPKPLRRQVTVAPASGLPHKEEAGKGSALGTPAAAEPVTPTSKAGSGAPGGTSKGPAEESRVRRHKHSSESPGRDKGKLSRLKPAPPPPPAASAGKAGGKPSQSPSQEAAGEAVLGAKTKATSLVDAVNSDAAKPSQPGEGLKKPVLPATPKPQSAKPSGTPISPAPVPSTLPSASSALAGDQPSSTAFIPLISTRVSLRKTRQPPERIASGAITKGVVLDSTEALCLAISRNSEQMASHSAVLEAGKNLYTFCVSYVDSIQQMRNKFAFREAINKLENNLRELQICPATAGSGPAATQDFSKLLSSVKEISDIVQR

Row | SMILES | remaining binding at 1 µM (ERK4) [%] | remaining binding at 1 µM (CDKL1) [%] | remaining binding at 1 µM (LRRK2(G2019S)) [%] | remaining binding at 1 µM (OSR1) [%] | remaining binding at 1 µM (NEK6) [%] | remaining binding at 1 µM (MELK) [%] | remaining binding at 1 µM (MAP3K3) [%] | remaining binding at 1 µM (PIP5K2C) [%] | remaining binding at 1 µM (NDR2) [%] | remaining binding at 1 µM (SIK2) [%] | remaining binding at 1 µM (p38-beta) [%] | remaining binding at 1 µM [1] [%] | remaining binding at 1 µM (p38-alpha) [%]
1 | Clc1cc(NCC2CC2)c2ncc(-c3ccc4[nH]ncc4c3)n2n1 [compound 2, 6-Chloro-N-(cyclopropylmethyl)-3-(1H-indazol-5-yl)imidazo[1,2-b]pyridazin-8-amine] | 100 | 74 | 91 | 79 | 99 | 35 | 88 | 67 | 94 | 73 | 94 | 100 | 100
2 | O=C(CN1CCOCC1)N[C@H]1CC[C@H](Nc2cc(Cl)nn3c(-c4ccc5[nH]ncc5c4)cnc23)CC1 [compound 26] | 99 | 90 | 76 | 99 | 100 | 16 | 89 | 93 | 94 | 97 | 94 | 56 | 99
3 | CN1CCC(CNc2cc(Cl)nn3c(-c4cc5nc(Nc6ccccc6)[nH]c5cc4F)cnc23)CC1 [compound 31, 6-Chloro-3-(6-fluoro-2-(phenylamino)-1H-benzo[d]imidazol-5-yl)-N-((1-methylpiperidin-4-yl)methyl)imidazo[1,2-b]pyridazin-8-amine] | 93 | 67 | 88 | 100 | 96 | 96 | 73 | 100 | 100 | 100 | 99 | 86 | 95
